Here are results for 21 compounds from PubChem BioAssay (NCI).

The structures appear in SMILES notation. Where “and” joins values, the source holds several entries; their conditions need not be identical. Equal entries are not always repeated.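 96-well plates; 48 h exposure; 5 concentrations. Endpoints by linear interpolation between flanking doses. Not reached: highest tested concentration assigned. GI50 marks 50% less growth. Definition used: TGI = concentration required for complete inhibition of growth.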 Bounds are passed on as bounds.

Holding throughout (test): NCI-60 cell line screen, 48 h
The subject of test [1] is K-562 leukemia.
The subject of test [2] is COLO 205 colon.
The test system of test [3] is UACC-62 melanoma.
For test [4], the system named is NCI-H226 lung.
Test [5] concerns CAKI-1 renal.
In test [6] the test system is CCRF-CEM leukemia.
In test [7] the test system is SR leukemia.
For test [8], the system named is HL-60(TB) leukemia.
The subject of test [9] is RXF 393 renal.
The test system of test [10] is MDA-MB-435.

As for `Cc1ccc(Cc2c(=O)[nH]nc3ccccc23)cc1`, the TGI in test [1], in [2], in [3], in test [4], in test [5] and in [6] was more than 100 µM each time.

Consider `N#Cc1nc(Nc2cccc3ccccc23)sc1N`, for which the TGI in test [1] was more than 100 µM; in test [2], 81.5 µM; in test [7] it was 27.8 µM; in test [3], 59 µM; in [8], more than 100 µM; in [4], more than 100 µM. In test [5], this compound showed a TGI of more than 100 µM.

With `CC(C)CCN1c2nc(Nc3cc(F)c(O)c(F)c3)ncc2N(C)C(=O)C1C` (centres undefined), the GI50 in test [1] is 2.63 µM; in test [9] it was 7.94 µM; in [2] it was 14.6 µM; in test [3], 4.75 µM; in [8], 2.14 µM; in test [4], 17.4 µM. In addition, the GI50 in test [10] is 1.29 µM; in test [5] it was 2.84 µM; in test [6], 1.52 µM. Moreover, the TGI was more than 33.3 µM in test [1]; 31.4 µM in [9]; 29.3 µM in test [2]; 23.8 µM in test [3]; 6.47 µM in [8]; 41.2 µM in test [4]. The TGI in test [10] is 55.8 µM; in [5], more than 77.1 µM; in test [6], 23.6 µM.

For `CC(C)c1ccc2c(c1)CC[C@@H]1[C@@](C)(C(=O)O)CCC[C@]21C`, the GI50 in test [1] was 2.5 µM; in [9] it was 0.0244 µM; in test [2], 3.23 µM; in [3] it was 4.87 µM; in test [8] it was 3.4 µM; in [10], 10.9 µM. Also, the GI50 in test [5] is 2.93 µM. Moreover, the TGI in [1] was 9.2 µM; in test [9], 0.727 µM; in test [2] it was 7.83 µM; in [3], 18.4 µM; in test [8], 20.9 µM; in test [10] it was 29.5 µM. The TGI in test [5] stood at 12 µM.

Regarding `NC(=O)NC1C(c2ccccc2)=C1c1ccccc1`, the TGI in test [1] amounted to 43.1 µM; in test [9], 14.8 µM; in test [2] it was 27.9 µM; in test [3] it was 23.4 µM; in test [8], 68.3 µM; in [4] it was 25.1 µM. The TGI is 40.3 µM in test [10], more than 100 µM in [5] and more than 100 µM in [6].

Take `S=C(Nc1ccccc1)N(/N=C/C=C/c1ccccc1)c1nnc(-c2ccccc2)c(-c2ccccc2)n1`: the TGI in test [1] is more than 100 µM; in [9] it was more than 100 µM; in test [2], more than 100 µM; in [3] it was more than 100 µM; in [8], 52.4 µM; in test [4], more than 100 µM. The TGI in [5] and in test [6] was more than 100 µM in each case.

In the case of `COc1cc2nc(-c3ccc(Cl)cc3)cc(OCCCN3CCCCC3)c2cc1OC`, the GI50 in test [9] is 1.08 µM; in test [2], 0.582 µM; in test [7] it was 0.374 µM; in [3], 1.94 µM; in test [4], 1.12 µM; in [5] it was 0.287 µM. Further, the GI50 in test [6] is 2.79 µM. For the same compound, the TGI in test [9] is 3.9 µM; in test [2] it was more than 100 µM; in test [7], 2.85 µM; in test [3], 4.42 µM; in test [4], 3.73 µM; in test [5], 2.54 µM. Further, the TGI in [6] was more than 100 µM.

As to `CCC(C)n1ncn(-c2ccc(N3CCN(c4ccc(OCC5COC(Cn6cncn6)(c6ccc(Cl)cc6Cl)O5)cc4)CC3)cc2)c1=O` (centres undefined), the GI50 in test [1] is 9.76 µM; in test [9], 0.267 µM; in test [2], 4.12 µM; in test [3], 17.6 µM; in test [4], 28.1 µM; in [10], more than 100 µM. Also, the GI50 in test [5] is 2.88 µM; in [6], more than 100 µM. Besides, the TGI in test [1] was more than 100 µM; in [9], 0.865 µM; in [2], more than 100 µM; in test [3], more than 100 µM; in test [4], more than 100 µM; in test [10], more than 100 µM. Besides, the TGI in test [5] and in test [6] was more than 100 µM each time.

With `COc1cc(C(Cc2ccccc2)NC(C)=O)oc(=O)c1` (centres undefined), the TGI in [1], in test [9], in [2], in test [3], in test [8] and in test [4] was more than 100 µM throughout. Moreover, the TGI in test [5] and in test [6] was more than 100 µM each time.

For the compound `CCOc1ccccc1C=C1c2ccccc2C(=O)c2ccccc21`, the TGI in test [1] was more than 100 µM; in [9] it was 5.96 µM; in test [2] it was 17.4 µM; in [3], more than 100 µM; in [8], 8.46 µM; in test [5], 6.58 µM. In addition, in [6], the TGI is 35.5 µM.

For `CC1=C(C(=O)Nc2ccccc2)C(c2ccccc2)C(C(=O)Nc2ccccc2)=C(C)N1`, the TGI in [9], in test [2], in test [3], in [8], in [4] and in test [5] was more than 100 µM in each case.

Turning to `CN(C)c1ccc(C(C=C2c3ccccc3Sc3ccccc32)=C(C#N)C#N)cc1`, the TGI in test [1], in [9], in test [2], in test [3], in test [8] and in [5] was more than 100 µM throughout. Moreover, in test [6], the TGI was more than 100 µM.

On to `O=C(CCn1[nH]c(=O)c(Cl)c(Cl)c1=O)NO`, for which the TGI in test [1], in test [9], in [2], in test [3], in [8] and in test [4] was more than 100 µM in each case. Further, the TGI in [5] and in test [6] was more than 100 µM in each case.

Turning to `CCOC(=O)CCCn1c(SC)nc2[nH]cc(-c3ccccc3)c2c1=O`, the GI50 in test [1] was 12.7 µM; in test [9], 18.2 µM; in test [2], 24.2 µM; in test [3], 11.2 µM; in test [8], 1.05 µM; in test [4], 14.1 µM. Also, the GI50 was 19.4 µM in [10], 15.8 µM in test [5] and 3.01 µM in test [6]. Moreover, the TGI in [1] was determined as 56.9 µM; in [9], 49 µM; in test [2] it was 56.1 µM; in test [3], 25.1 µM; in test [8] it was 15 µM; in test [4], 45.1 µM. Also, the TGI in test [10] is 42.4 µM; in test [5] it was 45.1 µM; in test [6] it was 54.5 µM.

As for `Cc1ccc(NC(=O)C(=O)C(C(=O)c2ccc3ccccc3c2)C2OC(=O)c3ccccc32)cc1C` (centres undefined), the TGI was 59.7 µM in test [1]; 32.6 µM in [2]; 30.7 µM in test [3]; 44.9 µM in [8]; 11 µM in [4]; 43.7 µM in test [5]. This compound also showed a TGI in test [6] of 51.3 µM.

For `Cc1nn(-c2ccccc2)c2nc(N3CCOCC3)nnc12`, the TGI in test [1], in test [9], in [2], in [3], in [5] and in test [6] was more than 100 µM each time.

Turning to `C=CCCCCC/C=C\[C@H](O)C#CC#C/C=C/CO`, the GI50 in [9] was 34.5 µM; in test [2], 36.7 µM; in test [3], 26.2 µM; in test [8] it was 3.64 µM; in test [4] it was 15.2 µM; in test [10], 39.8 µM. The GI50 in [5] is 32.6 µM. The TGI was more than 100 µM in [9]; more than 100 µM in test [2]; more than 100 µM in test [3]; 24.1 µM in test [8]; 31 µM in test [4]; more than 100 µM in test [10]. Moreover, in test [5], the TGI worked out at 86.6 µM.

On to `Cc1nc2c(-c3cnc(N)nc3)nc(N3CCOCC3)nc2n1C(C)C`, for which the GI50 was 1 µM and 0.661 µM in test [1]; 0.222 µM and 0.23 µM in test [8]; 0.182 µM and 0.113 µM in [10]. The TGI was more than 100 µM in test [1]; 0.611 µM and 0.315 µM in [9]; 1.1 µM and 3.68 µM in test [2]; 0.334 µM and 0.305 µM in [3]; > 5.87 µM and 20.9 µM in test [8]; 1.32 µM and 1.16 µM in [10]. Moreover, the TGI in test [5] was 1.42 µM and 2.94 µM.

`O=C(/C=C/c1ccccc1O)c1ccccc1O`: the TGI in test [1], in test [9], in test [2], in test [3], in test [8] and in test [4] was more than 100 µM in each case. For the same compound, the TGI in test [5] and in test [6] was more than 100 µM each time.

`Cc1ccc(S(=O)(=O)N(CC(=O)O)c2ccccc2)cc1`: the TGI in test [1], in test [9], in test [2], in test [3], in [8] and in test [5] was more than 100 µM each time. Further, the TGI in [6] is more than 100 µM.

Turning to `COc1cccc(/C=C/c2cc(OC)c(OC)c(OC)c2)c1`, the TGI in test [1], in test [2], in test [7], in test [3], in [4] and in test [6] was more than 100 µM each time.
